Experimental data: US20230416205A1, “COMPOUNDS, COMPOSITIONS, AND METHODS” (Denali Therapeutics Inc, priority 2020, published 2023)
pIC50: −log10 of the molar value. Read-outs that look alike come from different tables or passages of the source.

Tested on: NLRP3
Experiment: IL-1β secretion assay in PMA-differentiated, LPS/nigericin-stimulated THP-1 cells (384-well, ELISA read-out)
Format: cell-based, human
Details: Homo sapiens
Method in brief: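 THP-1 cells differentiated with PMA (5 ng/mL, 40 h), primed in serum-free medium with 25 ng/mL LPS for 2 h, treated with compounds 1 h (0.5% DMSO), then stimulated with nigericin for 2 h at 37 °C. Supernatant IL-1β measured by ELISA; responses normalized to LPS+5 μM nigericin and LPS-only controls.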

[1] = THP-1, IL-1β secretion, PMA-differentiated THP-1 cells, LPS then nigericin stimulation, ELISA read at 450 nm, read-out: Activity
[2] = THP-1, Table 4, IL-1β secretion, LPS/nigericin-stimulated THP-1 cells, read-out: IC50

| Structure (SMILES) | pIC50 [1] | pIC50 [2] |
| --- | --- | --- |
| O=C(CN1CC2(CC2)c2cc(Br)ccc2C1=O)Nc1ncc(-n2cccn2)cc1F [Example 186, 2-(6-bromo-1-oxospiro[3H-isoquinoline-4,1′-cyclopropane]-2-yl)-N-(3-fluoro-5-pyrazol-1-ylpyridin-2-yl)acetamide] | > 5.00 | 5.28 |
| Cc1nc(-c2ccnc(NC(=O)CN3CC4(CC4)c4cc(Br)ccc4C3=O)n2)cs1 [Example 187, 2-(6-bromo-1-oxospiro[3H-isoquinoline-4,1′-cyclopropane]-2-yl)-N-[4-(2-methyl-1,3-thiazol-4-yl)pyrimidin-2-yl]acetamide] | > 5.00 | 6.06 |
| O=C(CN1CC2(CC2)c2cc(Br)ccc2C1=O)Nc1nc2n(n1)CCC2 [Example 188, 2-(6-bromo-1-oxospiro[3H-isoquinoline-4,1′-cyclopropane]-2-yl)-N-(6,7-dihydro-5H-pyrrolo[1,2-b][1,2,4]triazol-2-yl)acetamide] | > 5.00 | 5.89 |
| Cn1ncc2nc(NC(=O)CN3CC4(CC4)c4cc(Br)ccc4C3=O)ccc21 [Example 189, 2-(6-bromo-1-oxospiro[3H-isoquinoline-4,1′-cyclopropane]-2-yl)-N-(1-methylpyrazolo[4,3-b]pyridin-5-yl)acetamide] | > 5.00 | 5.42 |
| Cn1cc2nc(NC(=O)CN3CC4(CC4)c4cc(Br)ccc4C3=O)ccc2n1 [Example 190, 2-(6-bromo-1-oxospiro[3H-isoquinoline-4,1′-cyclopropane]-2-yl)-N-(2-methylpyrazolo[4,3-b]pyridin-5-yl)acetamide] | > 5.00 | 6.16 |
| O=C(CN1CC2(CC2)c2cc(Br)ccc2C1=O)Nc1ccc2ccncc2c1 [Example 191, 2-(6-bromo-1-oxospiro[3H-isoquinoline-4,1′-cyclopropane]-2-yl)-N-isoquinolin-7-ylacetamide] | > 5.00 | 5.94 |
| O=C(CN1CC2(CC2)c2cc(Br)ccc2C1=O)Nc1ncncn1 [Example 192, 2-(6-bromo-1-oxospiro[3H-isoquinoline-4,1′-cyclopropane]-2-yl)-N-(1,3,5-triazin-2-yl)acetamide] | > 5.00 | 6.51 |
| O=C(CN1CC2(CC2)c2cc(Br)ccc2C1=O)Nc1ncc(C(F)(F)F)cn1 [Example 193, 2-(6-bromo-1-oxospiro[3H-isoquinoline-4,1′-cyclopropane]-2-yl)-N-[5-(trifluoromethyl)pyrimidin-2-yl]acetamide] | > 5.00 | 6.62 |
| O=C(CN1CC2(CC2)c2cc(Br)ccc2C1=O)Nc1ncc(C2CC2)cn1 [Example 194, 2-(6-bromo-1-oxospiro[3H-isoquinoline-4,1′-cyclopropane]-2-yl)-N-(5-cyclopropylpyrimidin-2-yl)acetamide] | > 5.00 | 6.41 |
| O=C(CN1CC2(CC2)c2cc(Br)ccc2C1=O)Nc1ccc(C(F)F)cn1 [Example 195, 2-(6-bromo-1-oxospiro[3H-isoquinoline-4,1′-cyclopropane]-2-yl)-N-[5-(difluoromethyl)pyridin-2-yl]acetamide] | > 5.00 | 6.00 |
| O=C(CN1CC2(CC2)c2cc(Br)ccc2C1=O)Nc1ccc(Cl)cn1 [Example 196, 2-(6-bromo-1-oxospiro[3H-isoquinoline-4,1′-cyclopropane]-2-yl)-N-(5-chloropyridin-2-yl)acetamide] | > 5.00 | 6.29 |
| O=C(CN1CC2(CC2)c2cc(Br)ccc2C1=O)Nc1ncc2ccccc2n1 [Example 197, 2-(6-bromo-1-oxospiro[3H-isoquinoline-4,1′-cyclopropane]-2-yl)-N-quinazolin-2-ylacetamide] | > 5.00 | 5.90 |
| O=C(CN1CC2(CC2)c2cc(Br)ccc2C1=O)Nc1ccc2ccccc2n1 [Example 198, 2-(6-bromo-1-oxospiro[3H-isoquinoline-4,1′-cyclopropane]-2-yl)-N-quinolin-2-ylacetamide] | > 5.00 | 5.82 |
| O=C(CN1CC2(CC2)c2cc(Br)ccc2C1=O)Nc1ccc2cccnc2n1 [Example 199, 2-(6-bromo-1-oxospiro[3H-isoquinoline-4,1′-cyclopropane]-2-yl)-N-(1,8-naphthyridin-2-yl)acetamide] | > 5.00 | 5.86 |
| O=C(CN1CC2(CC2)c2cc(Br)ccc2C1=O)Nc1ccc2cncn2c1 [Example 201, 2-(6-bromo-1-oxospiro[3H-isoquinoline-4,1′-cyclopropane]-2-yl)-N-imidazo[1,5-a]pyridin-6-ylacetamide] | > 5.00 | 5.88 |
| Cc1cnc(NC(=O)CN2CC3(CC3)c3cc(Br)ccc3C2=O)nc1 [Example 202, 2-(6-bromo-1-oxospiro[3H-isoquinoline-4,1′-cyclopropane]-2-yl)-N-(5-methylpyrimidin-2-yl)acetamide] | > 5.00 | 6.73 |
| CCc1cnc(NC(=O)CN2CC3(CC3)c3cc(Br)ccc3C2=O)nc1 [Example 204, 2-(6-bromo-1-oxospiro[3H-isoquinoline-4,1′-cyclopropane]-2-yl)-N-(5-ethylpyrimidin-2-yl)acetamide] | > 5.00 | 6.19 |

| Structure (SMILES) | pIC50 [1] | pIC50 [2] |
| --- | --- | --- |
| O=C(CN1CC2(CC2)c2cc(Br)ccc2C1=O)Nc1nc2ccccc2o1 [Example 205, N-(1,3-benzoxazol-2-yl)-2-(6-bromo-1-oxospiro[3H-isoquinoline-4,1′-cyclopropane]-2-yl)acetamide] | > 5.00 | 6.51 |
| O=C(CN1CC2(CC2)c2cc(Br)ccc2C1=O)Nc1ccc2cnccc2n1 [Example 206, 2-(6-bromo-1-oxospiro[3H-isoquinoline-4,1′-cyclopropane]-2-yl)-N-(1,6-naphthyridin-2-yl)acetamide] | > 5.00 | 5.90 |
| N#Cc1ccc2nc(NC(=O)CN3CC4(CC4)c4cc(Br)ccc4C3=O)oc2c1 [Example 207, 2-(6-bromo-1-oxospiro[3H-isoquinoline-4,1′-cyclopropane]-2-yl)-N-(6-cyano-1,3-benzoxazol-2-yl)acetamide] | > 5.00 | 6.31 |
| O=C(CN1CC2(CC2)c2cc(Br)ccc2C1=O)Nc1ccc(F)cn1 [Example 208, 2-(6-bromo-1-oxospiro[3H-isoquinoline-4,1′-cyclopropane]-2-yl)-N-(5-fluoropyridin-2-yl)acetamide] | > 5.00 | 6.15 |
| O=C(CN1CC2(CC2)c2cc(Br)ccc2C1=O)Nc1nc2ncccc2o1 [Example 209, 2-(6-bromo-1-oxo-spiro[3H-isoquinoline-4,1′-cyclopropane]-2-yl)-N-oxazolo[4,5-b]pyridin-2-yl-acetamide] | > 5.00 | 5.45 |
| O=C(CN1CC2(CC2)c2cc(Br)ccc2C1=O)Nc1nc2cnccc2o1 [Example 210, 2-(6-bromo-1-oxo-spiro[3H-isoquinoline-4,1′-cyclopropane]-2-yl)-N-oxazolo[4,5-c]pyridin-2-yl-acetamide] | > 5.00 | 6.09 |
| O=C(CN1CC2(CC2)c2cc(Br)ccc2C1=O)Nc1nc2cccnc2o1 [Example 211, 2-(6-bromo-1-oxo-spiro[3H-isoquinoline-4,1′-cyclopropane]-2-yl)-N-oxazolo[5,4-b]pyridin-2-yl-acetamide] | > 5.00 | 5.93 |
| O=C(CN1CC2(CC2)c2cc(Br)ccc2C1=O)Nc1nc2ccncc2o1 [Example 212, 2-(6-bromo-1-oxo-spiro[3H-isoquinoline-4,1′-cyclopropane]-2-yl)-N-oxazolo[5,4-c]pyridin-2-yl-acetamide] | > 5.00 | 6.23 |
| O=C(CN1CC2(CC2)c2cc(Br)ccc2C1=O)Nc1ncc2c(n1)COC2 [Example 213, 2-(6-bromo-1-oxospiro[3H-isoquinoline-4,1′-cyclopropane]-2-yl)-N-(5,7-dihydrofuro[3,4-d]pyrimidin-2-yl)acetamide] | > 5.00 | 5.87 |
| O=C(CN1CC2(CC2)c2cc(Br)ccc2C1=O)Nc1nccc(=O)[nH]1 [Example 214, 2-(6-bromo-1-oxospiro[3H-isoquinoline-4,1′-cyclopropane]-2-yl)-N-(6-oxo-1H-pyrimidin-2-yl)acetamide] | > 5.00 | 5.12 |
| O=C(CN1CC2(CC2)c2cc(F)ccc2C1=O)Nc1ncc(F)cn1 [Example 215, 2-(6-fluoro-1-oxospiro[3H-isoquinoline-4,1′-cyclopropane]-2-yl)-N-(5-fluoropyrimidin-2-yl)acetamide] | > 5.00 | 5.16 |
| Cc1cc(NC(=O)CN2CC3(CC3)c3cc(Br)ccc3C2=O)nc(C)n1 [Example 216, 2-(6-bromo-1-oxospiro[3H-isoquinoline-4,1′-cyclopropane]-2-yl)-N-(2,6-dimethylpyrimidin-4-yl)acetamide] | > 5.00 | 5.40 |
| Cc1cnc(NC(=O)CN2CC3(CC3)c3cc(Br)ccc3C2=O)nc1C [Example 217, 2-(6-bromo-1-oxospiro[3H-isoquinoline-4,1′-cyclopropane]-2-yl)-N-(4,5-dimethylpyrimidin-2-yl)acetamide] | > 5.00 | 6.06 |
| Cn1ncnc1NC(=O)CN1CC2(CC2)c2cc(Br)ccc2C1=O [Example 218, 2-(6-bromo-1-oxospiro[3H-isoquinoline-4,1′-cyclopropane]-2-yl)-N-(2-methyl-1,2,4-triazol-3-yl)acetamide] | > 5.00 | 5.04 |
| N#Cc1ccc2oc(NC(=O)CN3CC4(CC4)c4cc(Br)ccc4C3=O)nc2c1 [Example 219, 2-(6-bromo-1-oxospiro[3H-isoquinoline-4,1′-cyclopropane]-2-yl)-N-(5-cyano-1,3-benzoxazol-2-yl)acetamide] | > 5.00 | 5.79 |
| N#Cc1cnc(NC(=O)CN2C[C@@]3(C[C@@H]3F)c3c(ccc(C4CC4)c3F)C2=O)nc1 [Example 230, 2-[(2′s,4r)-6-cyclopropyl-2′,5-difluoro-1-oxospiro[3H-isoquinoline-4,1′-cyclopropane]-2-yl]-N-(5-cyanopyrimidin-2-yl)acetamide] | > 5.00 | 7.29 |
